Results: US20100216802A1, “PTERIDINE DERIVATIVES AS POLO-LIKE KINASE INHIBITORS USEFUL IN THE TREATMENT OF CANCER” (CHROMA THERAPEUTICS LTD., priority 2006, published 2010)

What was measured:
[1] = test system: HCT 116 cell line; assay: Cell inhibition assay method A (WST-1, 120 hrs); format: cell-based; conditions: Homo sapiens, HCT-116, method A, read-out: Inhibitor Activity vs HCT 116 cell line (method A)
Protocol: Cell inhibition assays were carried out using either method A or method B
Cells were seeded in 96W tissue culture plates (1 well=30 mm^2) at a density of […] per well in 50 μL of the appropriate culture medium (see below). 24 hrs later […] of the compound prepared in the same medium was added as 4 fold dilutions to give final concentrations in the range 0.15 nM-2500 nM (n=6 for each concentration). The plates were then incubated at 37° C., 5% CO2 for 120 hrs. Cell proliferation was assessed using WST-1 (a metabolic indicator dye, Roche Cat no. 1 644 807) according to the manufacturers instructions. The results were calculated as percentage of vehicle response and IC50 values represent the concentration of compound that inhibited the vehicle response by 50%.
HCT-116 culture medium —Dulbeccos MEM (Sigma D6546) plus 10% heat inactivated fetal calf serum (Hyclone SH30071 Thermo Fischer Scientific) containing 2 mM Glutamine (Sigma cat no G-7513) and 50 U/ml Penicillin and Streptomycin Sulphate (Sigma Cat no P-0781).

[2] = target: T1, PLK1 (Homo sapiens, UniProt P53350); assay: PLK1 enzyme assay (Z'-LYTE, Invitrogen); format: biochemical; conditions: ATP at or close to Km; read-out: Inhibitor Activity vs PLK1
T1 construct: purchased Invitrogen (Paisley, UK)
Protocol: The ability of compounds to inhibit PLK-1 kinase activity was measured in an assay performed by Invitrogen (Paisley, UK). The Z′-LYTE™ biochemical assay employs a fluorescence-based, coupled-enzyme format and is based on the differential sensitivity of phosphorylated and non-phosphorylated peptides to proteolytic cleavage. The peptide substrate is labelled with two fluorophores—one at each end—that make up a FRET pair. In the primary reaction, the kinase transfers the gamma-phosphate of ATP to a single serine or threonine residue in a synthetic FRET-peptide. In the secondary reaction, a site-specific protease recognizes and cleaves non-phosphorylated FRET-peptides. Phosphorylation of FRET-peptides suppresses cleavage by the Development Reagent. Cleavage disrupts FRET between the donor (i.e., coumarin) and acceptor (i.e., fluorescein) fluorophores on the FRET-peptide, whereas uncleaved, phosphorylated FRET-peptides maintain FRET. A […] method, which calculates the ratio (the Emission Ratio) of donor emission to acceptor emission after excitation of the donor fluorophore at 400 nm, is used to quantitate reaction progress.
The assay is performed at an ATP concentration at, or close to, the Km. After the 60 minute Kinase Reaction incubation at RT, 5 μL of a 1:8 dilution of Development Reagent is added. The assay plate is incubated for a further 60 minutes at RT and read on a fluorescence plate reader.
Duplicate data points are generated from a ⅓ log dilution series of a stock solution of test compound in DMSO. Nine dilutions steps are made from a top concentration of 10 μM, and a ‘no compound’ blank is included. Data is collected and analysed using XLfit software from IDBS.

T1 sequence (P53350 whole entry): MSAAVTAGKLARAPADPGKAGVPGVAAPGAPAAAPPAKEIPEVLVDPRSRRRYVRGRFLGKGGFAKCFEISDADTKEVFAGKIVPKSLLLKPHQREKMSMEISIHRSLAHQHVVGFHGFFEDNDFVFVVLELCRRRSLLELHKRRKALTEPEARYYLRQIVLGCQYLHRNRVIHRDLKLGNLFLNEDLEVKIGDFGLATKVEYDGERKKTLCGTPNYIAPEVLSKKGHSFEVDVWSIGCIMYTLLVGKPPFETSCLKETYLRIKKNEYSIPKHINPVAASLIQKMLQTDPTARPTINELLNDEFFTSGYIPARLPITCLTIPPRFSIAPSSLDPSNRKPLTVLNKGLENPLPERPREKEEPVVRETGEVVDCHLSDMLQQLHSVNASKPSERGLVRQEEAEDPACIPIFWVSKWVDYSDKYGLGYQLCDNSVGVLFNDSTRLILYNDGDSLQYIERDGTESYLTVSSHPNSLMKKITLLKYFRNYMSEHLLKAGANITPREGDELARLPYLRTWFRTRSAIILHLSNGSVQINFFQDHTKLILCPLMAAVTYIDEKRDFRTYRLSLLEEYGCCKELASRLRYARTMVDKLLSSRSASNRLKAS

IC50 [1] [nM]	IC50 [2] [nM]	Compound
< 100	< 100	CC[C@@H]1C(=O)N(C)c2cnc(Nc3ccc(C(=O)NC4C5CN(CC[C@H](N)C(=O)OC6CCCC6)CC54)cc3OC)nc2N1C1CCCC1 (stereo partly drawn) [Example 18, Cyclopentyl (2S)-2-amino-4-{6-[(4-{[(7R)-8-cyclopentyl-7-ethyl-5-methyl-6-oxo-5,6,7,8-tetrahydropteridin-2-yl]amino}-3-methoxybenzoyl)amino]-3-azabicyclo[3.1.01]hex-3-yl}butanoate]
< 100	< 100	CC[C@@H]1C(=O)N(C)c2cnc(Nc3ccc(C(=O)Nc4ccc(/C=C/C[C@H](N)C(=O)OC5CCCC5)cc4)cc3OC)nc2N1C1CCCC1 [Example 20, Cyclopentyl (2S,4E)-2-amino-5-{4-[(4-{[(7R)-8-cyclopentyl-7-ethyl-5-methyl-6-oxo-5,6,7,8-tetrahydropteridin-2-yl]amino}-3-methoxybenzoyl)amino]phenyl}pent-4-enoate]
< 100	< 100	CC[C@@H]1C(=O)N(C)c2cnc(Nc3ccc(C(=O)NC4CCN(CCC[C@@H](N)C(=O)OC5CCCC5)CC4)cc3OC)nc2N1C1CCCC1 [Example 27, Cyclopentyl 5-{4-[(4-{[(7R)-8-cyclopentyl-7-ethyl-5-methyl-6-oxo-5,6,7,8-tetrahydropteridin-2-yl]amino}-3-methoxybenzoyl)amino]piperidin-1-yl}-D-norvalinate]
100 to 500	< 100	CC[C@@H]1C(=O)N(C)c2cnc(Nc3ccc(C(=O)Nc4ccc(C[C@H](N)C(=O)OC(C)(C)C)cc4)cc3OC)nc2N1C1CCCC1 [Example 11, tert-Butyl 4-[(4-{[(7R)-8-cyclopentyl-7-ethyl-5-methyl-6-oxo-5,6,7,8-tetrahydropteridin-2-yl]amino}-3-methoxybenzoyl)amino]-L-phenylalaninate]
< 100	< 100	CC[C@@H]1C(=O)N(C)c2cnc(Nc3ccc(C(=O)NCC[C@H](N)C(=O)OC4CCCC4)cc3OC)nc2N1C1CCCC1 [Example 5, Cyclopentyl (2S)-2-amino-4-[(4-{[(7R)-8-cyclopentyl-7-ethyl-5-methyl-6-oxo-5,6,7,8-tetrahydropteridin-2-yl]amino}-3-methoxybenzoyl)amino]butanoate]
< 100	100 to 500	CC[C@@H]1C(=O)N(C)c2cnc(Nc3ccc(C(=O)NCc4ccc(OCC[C@H](N)C(=O)OC5CCCC5)cc4)cc3OC)nc2N1C1CCCC1 [Example 9, Cyclopentyl O-(4-{[(4-{[(7R)-8-cyclopentyl-7-ethyl-5-methyl-6-oxo-5,6,7,8-tetrahydropteridin-2-yl]amino}-3-methoxybenzoyl)amino]methyl}phenyl)-L-homoserinate]
< 100	< 100	CC[C@@H]1C(=O)N(C)c2cnc(Nc3ccc(C(=O)NCCCC[C@H](N)C(=O)OC4CCCC4)cc3OC)nc2N1C1CCCC1 [Example 8, Cyclopentyl N^6-(4-{[(7R)-8-cyclopentyl-7-ethyl-5-methyl-6-oxo-5,6,7,8-tetrahydropteridin-2-yl]amino}-3-methoxybenzoyl)lysinate]
< 100	< 100	CC[C@@H]1C(=O)N(C)c2cnc(Nc3ccc(C(=O)NCCN4CCC(C[C@H](N)C(=O)OC5CCCC5)CC4)cc3OC)nc2N1C1CCCC1 [Example 10, Cyclopentyl 3-(1-{2-[(4-{[(7R)-8-cyclopentyl-7-ethyl-5-methyl-6-oxo-5,6,7,8-tetrahydropteridin-2-yl]amino}-3-methoxybenzoyl)amino]ethyl}piperidin-4-yl)alaninate]
< 100	< 100	CC[C@@H]1C(=O)N(C)c2cnc(Nc3ccc(OCC[C@H](N)C(=O)OC4CCCC4)cc3OC)nc2N1C1CCCC1 [Example 4, Cyclopentyl O-(4-{[(7R)-8-cyclopentyl-7-ethyl-5-methyl-6-oxo-5,6,7,8-tetrahydropteridin-2-yl]amino}-3-methoxyphenyl)-L-homoserinate]
< 100	100 to 500	CC[C@@H]1C(=O)N(C)c2cnc(Nc3ccc(C(=O)Nc4ccc(C[C@H](N)C(=O)OC5CCCC5)cc4)cc3OC)nc2N1C1CCCC1 [Example 7, Cyclopentyl 4-[(4-{[(7R)-8-cyclopentyl-7-ethyl-5-methyl-6-oxo-5,6,7,8-tetrahydropteridin-2-yl]amino}-3-methoxybenzoyl)amino]-L-phenylalaninate]
< 100	< 100	CC[C@@H]1C(=O)N(C)c2cnc(Nc3ccc(C(=O)Nc4ccc(CCC[C@H](N)C(=O)OC5CCCC5)cc4)cc3OC)nc2N1C1CCCC1 [Example 19, Cyclopentyl 5-{4-[(4-{[(7R)-8-cyclopentyl-7-ethyl-5-methyl-6-oxo-5,6,7,8-tetrahydro-pteridin-2-yl]amino}-3-methoxybenzoyl)amino]phenyl}-L-norvalinate]

Second part, the compound before the results:

Compound	IC50 [1] [nM]	IC50 [2] [nM]
CC[C@@H]1C(=O)N(C)c2cnc(Nc3ccc(C(=O)NC4CCN(CCC[C@H](N)C(=O)OC(C)(C)C)CC4)cc3OC)nc2N1C1CCCC1 [Example 23, tert-butyl 5-{4-[(4-{[(7R)-8-cyclopentyl-7-ethyl-5-methyl-6-oxo-5,6,7,8-tetrahydropteridin-2-yl]amino}-3-methoxybenzoyl)amino]piperidin-1-yl}-L-norvalinate]	< 100	< 100
CC[C@@H]1C(=O)N(C)c2cnc(Nc3ccc(C(=O)NC4CCN(CC[C@H](N)C(=O)OC(C)(C)C)CC4)cc3C)nc2N1C1CCCC1 [Example 26, t-Butyl (2S)-2-amino-4-{4-[(4-{[(7R)-8-cyclopentyl-7-ethyl-5-methyl-6-oxo-5,6,7,8-tetra hydropteridin-2-yl]amino}-3-methylbenzoyl)amino]piperidin-1-yl}butanoate]	< 100	< 100
CC[C@@H]1C(=O)N(C)c2cnc(Nc3ccc(C(=O)N4CCNC(C(=O)OC5CCCC5)C4)cc3OC)nc2N1C1CCCC1 (stereo partly drawn) [Example 13, Cyclopentyl 4-(4-{[(7R)-8-cyclopentyl-7-ethyl-5-methyl-6-oxo-5,6,7,8-tetrahydropteridin-2-yl]amino}-3-methoxybenzoyl)piperazine-2-carboxylate]	100 to 500	< 100
CC[C@@H]1C(=O)N(C)c2cnc(Nc3ccc(C(=O)N[C@@H]4CN[C@H](C(=O)OC5CCCC5)C4)cc3OC)nc2N1C1CCCC1 [Example 6, Cyclopentyl (4S)-4-[(4-{[(7R)-8-cyclopentyl-7-ethyl-5-methyl-6-oxo-5,6,7,8-tetrahydropteridin-2-yl]amino}-3-methoxybenzoyl)amino]-L-prolinate]	< 100	< 100
CC[C@@H]1C(=O)N(C)c2cnc(Nc3ccc(C(=O)NCCN4CCNC(C(=O)OC5CCCC5)C4)cc3OC)nc2N1C1CCCC1 (stereo partly drawn) [Example 14, Cyclopentyl 4-{2-[(4-{[(7R)-8-cyclopentyl-7-ethyl-5-methyl-6-oxo-5,6,7,8-tetrahydropteridin-2-yl]amino}-3-methoxybenzoyl)amino]ethyl}piperazine-2-carboxylate]	< 100	< 100
CC[C@@H]1C(=O)N(C)c2cnc(Nc3ccc(C(=O)NC4CCN(CC[C@H](N)C(=O)OC(C)(C)C)CC4)cc3OC)nc2N1C1CCCC1 [Example 25, t-Butyl (2S)-2-amino-4-{4-[(4-{[(7R)-8-cyclopentyl-7-ethyl-5-methyl-6-oxo-5,6,7,8-tetrahydropteridin-2-yl]amino}-3-methoxybenzoyl)amino]piperidin-1-yl}butanoate]	< 100	< 100
CC[C@@H]1C(=O)N(C)c2cnc(Nc3ccc(C[C@H](N)C(=O)OC4CCCC4)cc3)nc2N1C1CCCC1 [Example 1, Cyclopentyl 4-{[(7R)-8-cyclopentyl-7-ethyl-5-methyl-6-oxo-5,6,7,8-tetrahydropteridin-2-yl]amino}-L-phenylalaninate]	100 to 500	< 100
CC[C@@H]1C(=O)N(C)c2cnc(Nc3ccc(C(=O)NCCN4CCNC(C(=O)OC(C)(C)C)C4)cc3OC)nc2N1C1CCCC1 (stereo partly drawn) [Example 15, tert-butyl 4-{2-[(4-{[(7R)-8-cyclopentyl-7-ethyl-5-methyl-6-oxo-5,6,7,8-tetrahydropteridin-2-yl]amino}-3-methoxybenzoyl)amino]ethyl}piperazine-2-carboxylate]	< 100	< 100
